Source: paper PMC12871931, “The importin‐alpha superfamily engages in ethylene signaling by shuttling [sequence] INSENSITIVE 2 from the endoplasmic reticulum to the nucleus” (The Febs Journal, 2025)

Legend:
[1] = test system: ein2‐1 loss‐of‐function mutant seedlings; assay: Triple response assay, ethylene‐insensitive mutant; type: in vivo, Arabidopsis thaliana; details: ein2‐1, dark‐grown, ACC in agar vs w/o ACC
Source text: In the presence of ethylene, dark‐grown seedlings display the characteristic phenotypic responses known as triple response. We hypothesized that nucleocytoplasmic transport and nuclear import of the EIN2 cytosolic part (CEND), which bridges ethylene signal transduction from the ER membrane to the nucleus, are mediated by the IMPα‐IMPβ transport machinery. This hypothesis is supported by the previously identified NLS motif in the EIN2 C terminus. To investigate whether any of the IMPα isoforms are implicated in ethylene signaling, A. thaliana Col‐0 (wild‐type; positive control), single loss‐of‐function mutants of the IMPα isoforms (impα1‐impα9) obtained from the Nottingham Arabidopsis Stock Centre (NASC), and ethylene‐insensitive mutant ein2‐1 (negative control) were grown in the dark in the presence of the ethylene precursor 1‐aminocyclopropane‐1‐carboxylate (ACC) and subsequently analyzed for their triple response. […] The findings on the single impα mutants indicate that nucleocytoplasmic transport and nuclear import of EIN2 CEND cannot be attributed to a single IMPα isoform, possibly because of functional redundancy among the IMPα isoforms.
(§1) Around 10 mg of seeds was filled into a 2‐mL reaction tube and put into a desiccator with the lid opened. Additionally, a beaker with 100 mL 37% perchloric acid was put into the desiccator. […]

[2] = test system: triple impα loss‐of‐function mutant seedlings; assay: Triple response assay, triple impα mutants; type: in vivo, Arabidopsis thaliana; details: 0.1 μM ACC, at least 20 seedlings per condition
Protocol: To gain further insights into the role of the IMPα superfamily for ethylene signaling, we studied multiple higher order IMPα loss‐of‐function mutants (Fig. 2). […] To check for potential differences in ethylene sensitivity, we supplemented the experiments from Fig. 2B with 0.1 and 1 μM ACC (Fig. 2C). […] These findings indicate that the mutation of three IMPα isoforms leads to diminished sensitivity in ethylene perception, supporting the pivotal role of the IMPα superfamily in ethylene signaling. However, no differences in ethylene sensing were observed among the various triple mutants, further reinforcing the hypothesis of IMPα redundancy in EIN2 transport. The deletion of an excessive number of IMPα isoforms is likely to have detrimental effects on regular plant growth and development, which has already been observed in the triple mutants (impα‐1;impα‐2;impα‐3). Due to the pivotal role of the IMPα‐IMPβ machinery in the nuclear transport of a large number of cargo proteins, we adopted an alternative strategy to investigate the role of IMPα proteins in plant ethylene signal transduction by testing their physical interaction with the ethylene key regulator EIN2.
as §1

[3] = test system: Col‐0 (wild‐type) seedlings; assay: Triple response assay, wild‐type; type: in vivo, Arabidopsis thaliana; details: dark‐grown, vs w/o ACC
Protocol: Around 10 mg of seeds was filled into a 2‐mL reaction tube and put into a desiccator with the lid opened. Additionally, a beaker with 100 mL 37% perchloric acid was put into the desiccator. 3 mL of 37% hydrochloric acid was pipetted into the beaker to start the reaction, and the lid of the desiccator was closed immediately. The seeds were incubated for 1 h. After the incubation time, the lid of the desiccator was opened slightly, while the tubes were incubated for 20 more minutes to wait for the gas to evaporate. 1 mL of sterile water was added to the reaction tubes, and the seeds were stratified by storage at 4 °C for 3 days before planting (otherwise they can be planted directly after this procedure). Before starting to plant the seeds, any material (e.g., pots and tubs) was sterilized with 70% ethanol. A mixture of soil, vermiculite, and sand (ratio 8:1:1) was prepared, and water was added in the right proportion to make the soil mix soggy but not mushy. The soil mix was sterilized by heating it in the microwave at 800 W for about 10 min. Pots were filled with the sterilized soil mix afterwards. Around 100 μL of 1% agarose in tap water was added to the reaction tubes containing the sterilized seedlings for better pipetting precision, and the seeds were planted into the soil mix. The growth of A. thaliana was performed at 22 °C, 60% humidity, and 100–120 μEinstein light intensity. The plants were watered only from the bottom every 2–3 days. After 5 weeks, the plants were big enough to grow in their own pots instead of several plants being grown crowded in one pot.
The triple response media for the agar plates was prepared by mixing 0.43% (w/v) of Murashige and Skoog (MS) salts and 1% (w/v) sucrose. The pH is adjusted to 6.0 before adding 0.7% (w/v) plant agar to the media and autoclaving it at 121 °C for 30 min. […] The seedlings were documented, and the length of the hypocotyl was analyzed using a binocular microscope and the software Motion 3.0, respectively. […]

IMPα7_ΔIBB = molecular target: T1, IMPα7_ΔIBB (Arabidopsis thaliana, UniProt Q9M9X7); assay: biochemical; type: binding
T1 construct: hexa-His (TEV site between protein and tag) (C); made in house; host or cells: E. coli BL21gold
Source text: Genes encoding several isoforms of the IMPα superfamily were either isolated from Arabidopsis thaliana (IMPα1, ‐2, ‐3, ‐4, ‐8) or synthetically produced by GenScript (IMPα5, ‐6, ‐7, ‐9) and cloned into the pETEV21a vector (modified version of the pET21a vector with an additional TEV cleavage site between the GOI and the His‐tag), which contains a C‐terminal hexa‐His‐tag. Only IMPα5 was additionally cloned into the pETEV16b vector (modified version of the pET16b vector with an additional TEV cleavage site between the GOI and the His‐tag), which contains an N‐terminal deca‐His‐tag (see Table S2 for primer list). The AtEIN2C^1215–1281 gene was cloned into the pETEV16b vector and additionally contained a GB1‐domain at the N terminus to enhance solubility. Most of the proteins were expressed in the E. coli BL21pRARE strain, while IMPα7, IMPα8, and ΔIBB_IMPα1 (lack of the IBB domain) were expressed using the E. coli BL21gold strain. The bacterial cultures were adjusted to an initial OD600 of 0.1 and grown in 2YT media at 37 °C until an OD600 between 0.6 and 0.8 was reached. Subsequently, the protein expression was induced with 0.5 mM IPTG. After two hours, the cells were harvested via centrifugation at 10,000 g for 10 min. IMPα5, IMPα6, IMPα7, IMPα8, ΔIBB_IMPα1, and GB1_AtEIN2C^1215–1281 were expressed at 16 °C overnight with the addition of 2% (v/v) ethanol. […]

EIN2C^479–1294 = assay: In planta FLIM‐FRET, EIN2C^479–1294‐CER donor, IMPα‐YFP acceptors; type: cell-based, Arabidopsis thaliana; details: mean, EIN2C^479–1294‐CER donor / IMPα‐YFP acceptor, N. benthamiana epidermal leaf cells
Source text: To further investigate the interaction between members of the IMPα superfamily and EIN2 in planta, we used in vivo fluorescence lifetime microscopy and Förster's resonance energy transfer (FLIM‐FRET). Accordingly, the C‐terminal part of EIN2 (EIN2C^479–1294) was fused to the fluorescent protein Cerulean (CER), serving as a donor, and the IMPα isoforms (IMPα1‐7) were fused to YELLOW FL[…] (YFP), serving as acceptors.
A modified version of a previously described procedure was used for the transient transformation of N. benthamiana. An overnight culture of agrobacteria was inoculated in DYT and incubated at 28°C one day before infiltration. […] For co‐infiltration, bacteria solutions were mixed in equal quantities, and Agrobacterium strain GV3101:p19 expressing the p19 silencing inhibitor was added to each mix. […]
Fluorescence lifetime imaging was performed using a protocol described previously. Fluorescence lifetime was measured at a Zeiss LSM 780 confocal microscope (40× water immersion objective, Zeiss C‐PlanApo, NA 1.2). […] Photons were detected in both donor and acceptor channels simultaneously with Tau‐SPADs (PicoQuant, Berlin, Germany). […] Internal response functions for each laser were determined by measuring the fluorescence decay of quenched Atto425 in saturated KI, using the same hardware settings as for the FRET pair of interest. […]

T1 sequence (Q9M9X7 57-528, stated change not applied): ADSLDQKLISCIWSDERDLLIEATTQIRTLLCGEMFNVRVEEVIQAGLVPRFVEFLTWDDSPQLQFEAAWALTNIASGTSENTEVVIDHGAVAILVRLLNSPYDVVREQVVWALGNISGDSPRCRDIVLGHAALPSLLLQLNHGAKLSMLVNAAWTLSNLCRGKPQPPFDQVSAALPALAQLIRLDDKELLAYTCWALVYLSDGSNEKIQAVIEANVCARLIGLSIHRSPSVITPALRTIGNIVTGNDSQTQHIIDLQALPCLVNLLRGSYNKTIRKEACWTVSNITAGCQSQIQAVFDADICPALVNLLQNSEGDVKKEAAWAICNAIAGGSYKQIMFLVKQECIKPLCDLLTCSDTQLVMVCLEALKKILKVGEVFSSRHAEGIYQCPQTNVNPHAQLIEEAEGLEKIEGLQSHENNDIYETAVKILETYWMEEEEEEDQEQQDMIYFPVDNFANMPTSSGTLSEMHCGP

NC1(C(=O)O)CC1 [ACC, 1‐aminocyclopropane‐1‐carboxylic acid]
decrease in hypocotyl length [1]: 10% | reduction in hypocotyl length (maximum among triple mutants) [2]: ≤ 7.5% | reduction in hypocotyl length ([3]; Col‐0, 0.1 μM ACC): 21% | reduction in hypocotyl length ([3]; Col‐0, 1 μM ACC): 55.5% | reduction in hypocotyl length ([3]; Col‐0, 10 μM ACC): 56.5%

CC(C)C[C@H](NC(=O)[C@H](CCCNC(=N)N)NC(=O)[C@H](CCCNC(=N)N)NC(=O)[C@H](CCCCN)NC(=O)[C@H](Cc1ccc(O)cc1)NC(=O)[C@H](CCCNC(=N)N)NC(=O)[C@H](CCCCN)NC(=O)[C@H](CC(C)C)NC(=O)c1ccc2c(c1)C(=O)OC21c2ccc(N(C)C)cc2Oc2cc(N(C)C)ccc21)C(=O)O [TAMRA‐NOP‐1]
Kd (IMPα7_ΔIBB): 3 ± 0.3 µM

IMPα4: A. thaliana IMPα4 fused to YFP, FRET acceptor
FRET efficiency (EIN2C^479–1294): 4.6%
